# Source: the OPERA property sets (Mansouri et al. 2018)
# Conditions: not given
SMILES,boiling point,log10 vapour pressure (mmHg),melting point,ready biodegradability,log10 Henry constant (atm·m³/mol),log10 Koa,log10 Koc (L/kg)
CCCOC(=O)c1ccccc1C(=O)OCCC,318 °C,-3.88,–,–,–,–,–
O=Cc1ccco1,162 °C,0.344,-38.1 °C,readily biodegradable,–,–,–
O=Cc1cccc(C=O)c1,246 °C,–,89.5 °C,–,–,–,–
CC(C)(C)CC(C)(C)c1ccc(O)c(Cc2ccc(Cl)cc2Cl)c1,–,–,78 °C,–,–,–,–
COCC(C)OC (stereo not given),96 °C,–,–,–,–,–,–
FC(F)C(F)Cl (stereo not given),17 °C,–,–,–,–,–,–
CO[C@H]1C=CC2=CCN3CCC4=C(CC(=O)OC4)[C@]23C1,–,–,99.5 °C,–,–,–,–
OCCCCl,165 °C,–,–,–,–,–,–
NS(=O)(=O)c1cc(C(=O)c2ccc(O)cc2)cs1,–,–,192 °C,–,–,–,–
CC[C@@]12CCCN(CCc3c([nH]c4ccccc34)CC1)C2,–,–,146 °C,–,–,–,–
CC(C)CC(C)(C#N)N=NC(C)(C#N)CC(C)C (stereo not given),–,–,–,not readily biodegradable,–,–,–
CC(CCl)CCCl (stereo not given),168 °C,–,–,–,–,–,–
CCNC(=O)C(C)OC(=O)Nc1ccccc1 (stereo not given),–,–,119 °C,–,–,–,–
CCCC(C)C(C)(C)CC (stereo not given),162 °C,–,–,–,–,–,–
O=[N+]([O-])c1ccc(Cl)c([N+](=O)[O-])c1,315 °C,-4.07,53 °C,not readily biodegradable,–,–,–
Cc1cccc(I)c1O,–,–,15.5 °C,–,–,–,–
C[C@]12CC[C@@H](O)C[C@@H]1CC[C@@H]1[C@@H]2CC[C@]2(C)C=CC[C@@H]12,–,–,143 °C,–,–,–,–
Nc1ccc(C(=O)Oc2ccccc2)c(O)c1,–,–,153 °C,–,–,–,–
OC1CCCCCCCCC1,–,–,40.5 °C,–,–,–,–
CN,-6.3 °C,3.42,–,readily biodegradable,-4.95,1.9,–
N#CC1CC1,135 °C,–,–,–,–,–,–
Cc1ccccc1NC(=N)Nc1ccccc1C,–,–,179 °C,–,–,–,–
CCS(=O)CC,–,–,14 °C,–,–,–,–
Cc1cc(C2CC2)nc(Nc2ccccc2)n1,–,-5.43,75.9 °C,–,–,–,–

SMILES,boiling point,log10 vapour pressure (mmHg),melting point,ready biodegradability,log10 Henry constant (atm·m³/mol),log10 Koa,log10 Koc (L/kg)
CC/C(=C(/CC)c1ccc(O)cc1)c1ccc(O)cc1,–,–,–,–,–,–,4.14
CCNc1cccc2ccccc12,305 °C,–,–,not readily biodegradable,–,–,–
Cc1cccc(OC(N)=O)c1,–,–,–,–,–,–,1.48
CCC(CC)(CC)C(C)C,172 °C,–,–,–,–,–,–
COCCOCCOCCOCCOC,275 °C,–,–,–,–,–,–
COc1ccccc1N1CCN(CCCC(=O)c2ccc(F)cc2)CC1,–,–,68 °C,–,–,–,–
ClCc1ccc2ccccc2c1,–,–,48.5 °C,–,–,–,–
CCOP(=O)(NC(C)C)Oc1ccc(S(C)=O)c(C)c1 (stereo not given),–,–,–,–,–,–,1.57
CCC(=O)Nc1nc(C)c(Cl)s1,–,–,159 °C,–,–,–,–
CC1C2Cc3ccc(O)cc3C1(C)CCN2CC1CC1 (stereo not given),–,–,202 °C,–,–,–,–
CCCCCCC(C)NC(C)CCCCCC (stereo not given),283 °C,–,–,–,–,–,–
C1CSC1,95 °C,1.72,-73.2 °C,–,–,–,–
CCC1(CC)C(=O)C=CNC1=O,–,–,90.7 °C,–,–,–,–
NC[C@H](O)C(=O)O,–,–,235 °C,–,–,–,–
CCOC(C)(C)C,73.1 °C,2.09,-94 °C,–,-2.79,–,–
CC(O)C(C)(C)CO (stereo not given),208 °C,–,–,–,–,–,–
CNC(=C[N+](=O)[O-])NCCSCc1csc(CN(C)C)n1,–,–,131 °C,–,–,–,–
CS(=O)(=O)NC(=O)c1cc(Oc2ccc(C(F)(F)F)cc2Cl)ccc1[N+](=O)[O-],–,–,220 °C,–,–,–,1.78
O=C(O)C(Cl)(Cl)Cl,196 °C,-1.22,57.5 °C,not readily biodegradable,-7.87,–,0.3
CCc1ccncc1,168 °C,0.355,-90.5 °C,–,-5.07,–,–
C[C@]12CC[C@H](O)C[C@H]1CC[C@@H]1[C@@H]2[C@H](O)C[C@]2(C)[C@@H](C3=CC(=O)OC3)CC[C@]12O,–,–,280 °C,–,–,–,–
C=CC=C(C)C,76.5 °C,–,–,–,–,–,–
CC12CCC(CC1)C(C)(C)O2,176 °C,0.279,1.5 °C,–,–,–,–
N#Cc1ccccc1CCl,252 °C,–,61 °C,–,–,–,–

SMILES,boiling point,log10 vapour pressure (mmHg),melting point,ready biodegradability,log10 Henry constant (atm·m³/mol),log10 Koa,log10 Koc (L/kg)
Cc1cccc(-c2cccc(C)c2)c1,280 °C,–,9 °C,–,–,–,–
CCC(OC(N)=O)C1CCCCC1 (stereo not given),–,–,128 °C,–,–,–,–
NS(=O)(=O)c1cc2c(cc1C(F)(F)F)NC(Cc1ccccc1)NS2(=O)=O (stereo not given),–,–,222 °C,–,–,–,–
OCC1CCCC1,163 °C,–,–,–,–,–,–
O=C(Nc1ccc(Br)cc1)c1cc(Br)ccc1O,–,–,242 °C,–,–,–,–
CCCCCCCCCCCCCCCCCCC(=O)O,300 °C,–,69.4 °C,–,–,–,–
Cc1cccc(Oc2cccc(C)c2)c1,284 °C,–,–,–,–,–,–
O=[N+]([O-])C(Br)(CO)CO,–,–,132 °C,not readily biodegradable,–,–,–
CC(=O)c1cccc(O)c1,296 °C,–,96 °C,–,–,–,–
CCCC(C)C(C)CC (stereo not given),141 °C,–,–,–,–,–,–
O=C1/C(=C/c2ccc(O)c(O)c2)Oc2cc(O)ccc21,–,–,303 °C,–,–,–,–
Cc1ccccc1NC(=N)NC(=N)N,–,–,144 °C,–,–,–,–
CCCCCCCCCCCCNC(=N)N,–,–,136 °C,–,–,–,–
FCC(F)(F)OC(F)F,43 °C,2.57,–,–,–,–,–
Nc1ncnc2c1ncn2[C@]1(CO)O[C@H](CO)[C@@H](O)[C@H]1O,–,–,212 °C,–,–,–,–
CCCCOC(=O)C(Cl)(Cl)Cl,204 °C,–,–,–,–,–,–
COP(=O)(OC)O/C(C)=C/C(=O)N(C)C,–,-3.8,–,–,-10.3,–,1.66
O=C(Cl)c1ccc(C(=O)Cl)cc1,258 °C,–,83.5 °C,–,–,–,–
Cc1nc2ccccc2[nH]1,–,–,176 °C,–,–,–,–
CC(C)CCCCCCOC(=O)c1ccccc1C(=O)OCCCCCCC(C)C,–,–,–,readily biodegradable,–,–,–
CC1(c2ccccc2)C(=O)NC(=O)NC1=O,–,–,220 °C,–,–,–,–
CCCCCCC(=O)CCCCC,–,–,10 °C,–,–,–,–
C=CCCCCCCCC,170 °C,0.223,-66.3 °C,–,–,–,–
C=CCCCCCCCCC,193 °C,-0.307,-49.2 °C,–,–,–,–

SMILES,boiling point,log10 vapour pressure (mmHg),melting point,ready biodegradability,log10 Henry constant (atm·m³/mol),log10 Koa,log10 Koc (L/kg)
Clc1ccc(Cl)c(-c2cc(Cl)ccc2Cl)c1,–,–,–,not readily biodegradable,-3.7,8.47,5.12
c1ccc(Oc2ccccc2)cc1,258 °C,-1.65,26.8 °C,readily biodegradable,–,–,3.29
CCCc1ccc(OC)cc1,212 °C,–,–,–,–,–,–
Fc1c(F)c(F)c(Sc2c(F)c(F)c(F)c(F)c2F)c(F)c1F,–,–,87 °C,–,–,–,–
O=C(CCl)C(Cl)(Cl)Cl,183 °C,–,65 °C,–,–,–,–
Clc1ccc2c(Cl)cccc2c1Cl,–,–,–,–,–,7.5,–
CCOc1ccc(C=O)cc1OC,–,–,64.5 °C,–,–,–,–
COc1ccc(NC(=O)N(C)C)cc1,–,–,–,–,–,–,1.4
CCOc1ccc(C(=O)OCCN(CC)CC)cc1,–,–,173 °C,–,–,–,–
C1=CC=CCCC=C1,146 °C,–,–,–,–,–,–
C=CC[Si](Cl)(Cl)Cl,118 °C,1.25,35 °C,–,–,–,–
C=C(F)F,-85.7 °C,4.48,-144 °C,–,–,–,–
CC(CO)Oc1ccccc1 (stereo not given),244 °C,–,–,–,–,–,–
ClCC#CCCl,166 °C,–,–,–,–,–,–
Sc1ccccn1,–,–,129 °C,–,–,–,–
CCOc1nc(F)cc2nc(S(=O)(=O)Nc3c(Cl)cccc3C(=O)OC)nn12,–,–,217 °C,–,–,–,–
O=C(O)[C@H]1CCCC[C@H]1C(=O)OC(=O)[C@H]1CCCC[C@H]1C(=O)O,–,–,–,not readily biodegradable,–,–,–
N#CSC#N,–,–,63.5 °C,–,–,–,–
Nc1c(Cl)cccc1Cl,–,–,39 °C,–,–,–,3.25
C=CSC=C,84 °C,–,20 °C,–,–,–,–
O=C(Cl)c1cc([N+](=O)[O-])cc([N+](=O)[O-])c1,–,–,74 °C,–,–,–,–
CCc1ccccc1CC,184 °C,0.0212,-31.2 °C,not readily biodegradable,–,–,–

# Same assay, conditions: fish
SMILES,log10 BCF,log10 biotransformation half-life (days)
CCNc1cccc2ccccc12,2.32,0.43
CCCCCC[Si](O)(CCCCCC)CCCCCC,2.7,0.04
O=C(O)C(Cl)(Cl)Cl,0.23,–
C=CCCCCCCCC,–,0.65
C=CCCCCCCCCC,–,0.09
Clc1ccc(Cl)c(-c2cc(Cl)ccc2Cl)c1,4.26,–
c1ccc(Oc2ccccc2)cc1,2.5,-0.09
COc1c(Cl)cc(Cl)c(Cl)c1Cl,3.34,–
